“Also recorded” adds a separate entry of the source.
Tests used:
GST‐DDX6 = test: GST pulldown with GST‐DDX6; assay type: binding; details: 150 µg GST‐DDX6, 300 µg recombinant Aβ oligomers or negative control protein, overnight; n = 3
Procedure: We conducted a series of in vitro experiments to investigate the mechanism by which DDX6 blockade affects Aβ oligomer neurotoxicity.
In accordance with the protocol provided in the GST pulldown kit (#21516; Thermo Fisher Scientific), 150 µg of GST‐DDX6 protein were rotated with 50 µL of glutathione agarose resin at 4°C for 3 h. The resin was then incubated overnight with 300 µg of recombinant Aβ oligomers or a negative control protein, washed with pH 8.0 glutathione elution buffer, and validated by dot blotting.

Aβ oligomers in AD brain = test: IHC colocalization with Aβ oligomers in AD brain sections; set-up: species or system human; details: AD7–AD10, n = 4; fluorescence scan over 120 µm
Excerpt: To further validate the binding interactions between Aβ oligomers and the four proteins, we performed immunohistochemistry (IHC) on brain sections from four AD patients (AD7–AD10). We analyzed the colocalization of Aβ oligomers (red) with DDX6, JUP, HRNR, and DSP (all green), as well as 4',6‐diamidino‐2‐phenylindole (DAPI)‐stained nuclei (blue). […] We also performed fluorescence intensity scanning from left to right across stained brain tissue slices (120 µm). […] The combined results from co‐IP and IHC confirm that these four proteins can bind to Aβ oligomers.
Sections were dewaxed, subjected to antigen retrieval, and blocked. They were then incubated with primary antibody (1:500) overnight at 4°C, followed by secondary antibody (1:200). Nuclei were stained with DAPI (Beyotime; C1002, Shanghai, China) for 10 min in the dark.

[1] = test system: human‐derived Aβ oligomers; test: Co-immunoprecipitation / Western blotting of protein-Aβ oligomer interaction in AD brain extracts; assay type: binding; details: IgG isotype control
Excerpt: After rigorous data analysis with SAINTexpress, four proteins (DDX6, DSP, JUP, and HRNR) were identified as potential Aβ oligomer‐binding partners. To validate these findings, we selected DSP and DDX6 as positive controls for co‐IP analysis; tau proteins were used as negative controls. Input samples, IP, co‐IP extracts, and IgG controls were adjusted to ensure equal amounts of protein for comparison. […] The IP enrichment effect was substantial for Aβ oligomers, DDX6, DSP, and tau proteins. In the co‐IP extracts for DDX6 and DSP, Aβ oligomers were detected at approximately 55 and 30 kDa, respectively (indicated by “ [drawing 1] ”). […] Isotype control IgG was used to exclude nonspecific binding (Figure 2A).
A Co‐IP kit (Thermo Fisher Scientific; #26149, USA) was used for the assay. Antibodies (2 µg) were crosslinked to a reinforced AminoLink coupling resin (20 µL of beads) and immobilized on a Pierce spin column at room temperature. Protein extracts (1 mg) were added to the spin column and incubated overnight at 4°C with rotation. The spin column was then transferred to a new collection tube, and 60 µL of elution buffer (pH 2.8, containing tertiary amine) was added. The column was centrifuged, and the eluate was analyzed to detect the presence of the target protein.
Protein concentrations in the co‐IP extracts were measured using a bicinchoninic acid assay (#23225, Thermo Fisher Scientific, USA). For each sample, 20 µL of protein was loaded, with the following amounts of human‐derived Aβ oligomers (AD1–AD6) used: 1.8 µg, 2.0 µg, 1.9 µg, 1.6 µg, 2.0 µg, and 1.8 µg, respectively. Equivalent amounts of co‐IP extracts were loaded into the remaining lanes. A 5× loading buffer was added to the protein samples to achieve a final concentration of 1×, and the samples were incubated at 95°C for 5 min [44]. […]
B. The PVDF membrane was probed with the Aβ oligomer antibody (A11), indicating enrichment of Aβ oligomers (post-IP) with bands observed at 55 kDa and 30 kDa. Aβ oligomers were detected in the co-IP products of DDX6 (indicated by “✸”). […]

[2] = test system: human‐derived Aβ oligomers; test: AP-MS with SAINTexpress scoring of binding to human‐derived Aβ oligomers; details: score 0 to 1; criteria SAINT score > 0.5 and fold change ≥ 2; AD1–AD6, n = 6
Excerpt: Not all identified proteins bind to Aβ oligomers. Therefore, we used the SAINTexpress statistical method to screen for proteins most likely to interact with human‐derived Aβ oligomers. SAINTexpress assigns probability scores to factors interacting with target proteins, providing a value between 0 and 1, where higher scores indicate a greater likelihood of interaction with Aβ oligomers. Based on the analyzed results, we plotted the fold change on the x‐axis and SAINT scores on the y‐axis, with each point representing a protein. Proteins meeting the criteria of a SAINT score > 0.5 and fold change ≥ 2 were considered the most likely to bind Aβ oligomers (highlighted in red). Through rigorous analysis, we identified four proteins as binding partners (Figure 1C): DDX6 (SAINT score = 0.5783), DSP (SAINT score = 0.6608), JUP (SAINT score = 0.5846), and HRNR (SAINT score = 0.5246).
An aliquot of each peptide mixture was loaded onto a trap column (in‐house‐fabricated column packed with a reversed‐phase ReproSil‐Pur C18‐AQ resin, 150 µm × 15 cm, C18, 3 µm, 100 Å, Dr. Maisch GmbH, Germany) connected to an analytical column (EASY‐Spray column, […] × 75 µm ID, PepMap RSLC C18, 2 µm, 100 Å, Thermo Scientific, USA) using the autosampler of an EASY‐nLC 1200 HPLC system (Thermo Fisher Scientific). The peptides were eluted using a gradient (solvent A: 0.1% formic acid in water; solvent B: 80% acetonitrile/0.1% formic acid in water; Sigma, Germany) directly into a Q Exactive Hybrid Quadrupole‐Orbitrap mass spectrometer (Thermo Fisher Scientific). The gradient program was as follows: 4%–8% solvent B over 2 min, 8%–28% solvent B over 43 min, 28%–40% solvent B over 10 min, 40%–95% solvent B over 1 min, and 95% solvent B for 10 min. The following mass spectrometry parameters were used: spray voltage, 2.2 kV; capillary temperature, 270°C; MS resolution, 70,000 at 400 m/z; MS precursor m/z range, 300.0–1800.0 m/z; activation type, high‐energy collision dissociation; normalized collision energy, 28.0; activation time, […]; and data‐dependent MS/MS, top 20 most intense peptide ions selected based on the preview scan in the Orbitrap.
The raw MS files (Figure S5) were analyzed and searched against species‐specific protein databases using MaxQuant (v1.6.2.10). The following parameters were applied: maximum missed cleavages, 2; precursor ion mass tolerance, 20 ppm; and MS/MS tolerance, 20 ppm. Peptides and proteins were filtered to achieve a false discovery rate of < 1% using a target‐decoy database strategy, and only proteins with at least two unique peptides were reported. […] SAINT is a probabilistic method for scoring protein–protein interactions in AP‐MS experiments, enabling the identification of proteins most likely to interact with target proteins. […]

Aβ fibrillar plaques = test: ThT‐binding assay, fluorescence microscopy of fibrillar plaques; assay type: biochemical; details: DDX6 10 µM, Aβ42 20 µM, Aβ42 oligomers 5 µM; n = 3

| Substance | pulldown by GST‐DDX6 (GST‐DDX6) | colocalization with Aβ oligomers (Aβ oligomers in AD brain) | binding to Aβ oligomers by co‐IP [1] | SAINT score [2] | fluorescence intensity by microscopy (in words) (Aβ fibrillar plaques) |
| --- | --- | --- | --- | --- | --- |
| Aβ42 oligomers: oligomers prepared from Aβ42 peptide (Abcam #ab120301), PBS, 72 h at 4°C | successfully pulled down | – | – | – | – |
| DEAD‐box helicase 6 [DDX6] | – | strong colocalization | DDX6 and DSP were also detected in Aβ oligomer co‐IP extracts; also recorded: DDX6 was detected in the co-IP products of Aβ oligomers | 0.5783 | showed no effects on fluorescence intensity |

From article PMC12018770, “DEAD‐Box Helicase 6 Blockade in Brain‐Derived Aβ Oligomers From Alzheimer's Disease Patients Attenuates Neurotoxicity” (MedComm, 2025)
